Values of other authors in article PMC13207833, “Coumarin–Amino Acid Hybrids Used as Possible Multifactorial Anti-Inflammatory Agents” (International Journal of Molecular Sciences, 2026).

Target: T1, soybean lipoxygenase (SLOX-1) (Glycine max, UniProt P08170)
T1 construct: purchased Merck and Sigma-Aldrich
T1 sequence (P08170 1-839): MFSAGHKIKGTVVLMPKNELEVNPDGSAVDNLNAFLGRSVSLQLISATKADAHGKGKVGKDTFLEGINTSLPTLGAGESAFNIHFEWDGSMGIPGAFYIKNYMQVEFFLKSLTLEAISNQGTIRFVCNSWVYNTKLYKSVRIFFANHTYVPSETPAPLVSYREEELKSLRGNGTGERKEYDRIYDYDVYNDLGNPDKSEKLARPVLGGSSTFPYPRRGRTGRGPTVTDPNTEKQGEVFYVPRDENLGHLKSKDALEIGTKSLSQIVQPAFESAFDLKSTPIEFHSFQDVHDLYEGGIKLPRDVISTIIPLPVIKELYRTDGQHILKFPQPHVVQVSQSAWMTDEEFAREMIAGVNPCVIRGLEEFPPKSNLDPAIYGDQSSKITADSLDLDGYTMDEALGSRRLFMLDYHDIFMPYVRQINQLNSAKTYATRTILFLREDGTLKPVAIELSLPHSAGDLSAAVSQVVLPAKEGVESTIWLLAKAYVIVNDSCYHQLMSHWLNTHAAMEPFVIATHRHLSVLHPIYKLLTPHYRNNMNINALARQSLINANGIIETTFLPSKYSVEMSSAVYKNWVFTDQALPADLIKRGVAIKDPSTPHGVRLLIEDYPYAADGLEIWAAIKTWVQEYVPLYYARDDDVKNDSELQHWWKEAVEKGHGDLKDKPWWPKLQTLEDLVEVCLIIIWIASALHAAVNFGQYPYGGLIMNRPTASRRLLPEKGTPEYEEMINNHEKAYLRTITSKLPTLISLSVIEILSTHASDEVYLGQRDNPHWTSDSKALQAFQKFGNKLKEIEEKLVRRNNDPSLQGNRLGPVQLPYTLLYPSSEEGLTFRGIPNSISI
Design: method as in PMID 29329232
Details: value from earlier paper of the group

IC50 [µM]	SMILES
100	O=C(O)COc1ccc2oc(=O)ccc2c1 [Compound 2, 2-((2-oxo-2H-chromen-6-yl)oxy)acetic acid]
100	O=C(O)COc1ccc2ccc(=O)oc2c1 [Compound 3, 2-((2-oxo-2H-chromen-7-yl)oxy)acetic acid]
